What follows are compounds tested against T1, human NaV1.6 (hNaV1.6) (Homo sapiens, UniProt Q9UQD0) (assay: Modulation of late (persistent) sodium current (INaL), PatchXpress electrophysiology, HEK-293 cells expressing hNaV1.6, ATX-II evoked). Conditions: 1 μM compound; HEK-293 cells expressing recombinant human NaV1.6; late current evoked by 300 nM ATX-II; steady-state inhibition.
T1 construct: expressed in transfected cells; host or cells: HEK-293 (G418 selection)
Type: cell-based
Description: Functional characterization of exemplary compounds to modulate INaL expressed by the NaV16 voltage-gated sodium channel was accomplished using the PatchXpress™ high throughput electrophysiology platform (Molecular Devices, Sunnyvale, Calif.). HEK-293 cells expressing recombinant, human NaV1.6 (hNaV1.6) were grown in DMEM/high-glucose Dulbecco's modified, 10% FBS, 2 mM sodium pyruvate, 10 mM HEPES and 400 μg/mL G418. Cells were grown to 50%-80% confluency prior to harvesting. Trypsinized cells were washed, allowed to recover for 1 hour and then resuspended in extracellular recording solution at a concentration of 1×10^6 cells/ml. The onboard liquid handling facility of the PatchXpress was used for dispensing cells and applying test compounds. NaV late currents were evoked by the application of 300 nM ATX-II. INaL was evoked by depolarizing pulses to 0 mV for 200 ms from a non-inactivating holding potential (e.g., −120 mV) at a frequency of 0.1 Hz. INaL amplitude and stability were determined by analyzing the mean current amplitude over the final 20 ms of the test pulse. Following steady state block with exemplary compounds (e.g., as described herein), a Na^+ free solution containing an impermeant cation (e.g., Choline or NDMG) was added to confirm the identify of the sodium current. Percent steady-state inhibition of INaL was calculated as: [(INaL_compound)/(INaL_control)]*100, where INaL_compound and INaL_control represent INaL recorded in the presence or absence of compound, respectively.
In this table, “A” indicates inhibition of less than 30%; “B” indicates inhibition of between about 30% to about 70%; and “C” indicates inhibition of greater than 70%.

T1 sequence (Q9UQD0 whole entry): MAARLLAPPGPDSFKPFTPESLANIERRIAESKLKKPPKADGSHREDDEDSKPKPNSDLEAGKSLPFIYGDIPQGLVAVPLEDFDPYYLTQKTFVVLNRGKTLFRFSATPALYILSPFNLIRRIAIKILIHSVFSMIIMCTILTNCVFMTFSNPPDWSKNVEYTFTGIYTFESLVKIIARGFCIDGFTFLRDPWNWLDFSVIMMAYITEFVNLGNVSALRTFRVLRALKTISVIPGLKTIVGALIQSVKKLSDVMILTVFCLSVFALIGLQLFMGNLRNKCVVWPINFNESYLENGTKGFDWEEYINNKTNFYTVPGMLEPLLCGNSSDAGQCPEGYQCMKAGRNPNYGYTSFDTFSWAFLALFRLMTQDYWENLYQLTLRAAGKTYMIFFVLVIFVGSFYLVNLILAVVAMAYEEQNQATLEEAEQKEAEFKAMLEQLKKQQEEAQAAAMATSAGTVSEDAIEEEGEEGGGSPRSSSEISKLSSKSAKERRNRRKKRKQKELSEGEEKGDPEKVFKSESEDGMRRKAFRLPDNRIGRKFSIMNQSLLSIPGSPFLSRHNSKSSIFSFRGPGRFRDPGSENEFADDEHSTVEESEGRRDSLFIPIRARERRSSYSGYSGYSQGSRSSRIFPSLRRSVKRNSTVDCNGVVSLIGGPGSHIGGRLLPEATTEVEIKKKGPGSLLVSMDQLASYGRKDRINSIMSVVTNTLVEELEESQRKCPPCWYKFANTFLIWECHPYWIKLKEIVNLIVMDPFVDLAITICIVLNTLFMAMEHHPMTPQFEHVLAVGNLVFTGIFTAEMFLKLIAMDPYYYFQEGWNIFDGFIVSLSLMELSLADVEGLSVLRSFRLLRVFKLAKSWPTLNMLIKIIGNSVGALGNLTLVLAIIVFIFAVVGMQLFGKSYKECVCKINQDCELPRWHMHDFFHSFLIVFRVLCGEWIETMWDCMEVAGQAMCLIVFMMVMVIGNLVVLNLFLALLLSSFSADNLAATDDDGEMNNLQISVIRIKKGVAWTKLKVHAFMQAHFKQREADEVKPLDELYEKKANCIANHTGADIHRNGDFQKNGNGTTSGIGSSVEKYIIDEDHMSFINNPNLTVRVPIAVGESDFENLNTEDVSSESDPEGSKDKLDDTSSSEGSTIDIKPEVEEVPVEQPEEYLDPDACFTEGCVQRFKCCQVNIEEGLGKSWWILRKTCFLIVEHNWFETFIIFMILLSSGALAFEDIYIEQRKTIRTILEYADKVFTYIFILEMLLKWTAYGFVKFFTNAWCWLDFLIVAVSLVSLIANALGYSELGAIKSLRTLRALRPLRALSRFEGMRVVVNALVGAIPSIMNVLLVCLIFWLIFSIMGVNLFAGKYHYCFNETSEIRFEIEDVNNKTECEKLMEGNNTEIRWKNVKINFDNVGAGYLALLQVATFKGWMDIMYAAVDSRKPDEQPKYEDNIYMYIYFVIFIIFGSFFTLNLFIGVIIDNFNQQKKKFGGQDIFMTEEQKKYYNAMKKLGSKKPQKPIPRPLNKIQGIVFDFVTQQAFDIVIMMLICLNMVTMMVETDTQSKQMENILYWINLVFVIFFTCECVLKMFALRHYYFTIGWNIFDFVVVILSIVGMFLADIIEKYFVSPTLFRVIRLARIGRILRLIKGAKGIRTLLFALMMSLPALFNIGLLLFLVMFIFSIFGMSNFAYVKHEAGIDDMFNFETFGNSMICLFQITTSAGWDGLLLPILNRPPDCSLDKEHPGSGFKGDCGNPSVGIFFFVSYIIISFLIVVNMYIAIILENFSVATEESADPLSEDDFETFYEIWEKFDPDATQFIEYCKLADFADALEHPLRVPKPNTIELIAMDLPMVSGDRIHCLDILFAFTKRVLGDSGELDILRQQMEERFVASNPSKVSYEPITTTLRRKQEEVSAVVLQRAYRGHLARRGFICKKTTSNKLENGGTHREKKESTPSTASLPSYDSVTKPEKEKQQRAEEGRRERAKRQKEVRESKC

SMILES	INaL hNaV1.6 (1 μM, % inhibition)
Cn1nnc2ccc(-c3ccc(OC(F)(F)F)cc3)cc21 [Compound 8]	B (inhibition of between about 30% to about 70%)
FC(F)(F)Cn1nnc2ccc(-c3ccc(OC4CC(F)(F)C4)nc3)cc21 [Compound 10]	A (inhibition of less than 30%)
COc1cc(OC(F)(F)F)ccc1-c1ccc2nnn(CC(F)(F)F)c2c1 [Compound 11]	A (inhibition of less than 30%)
FC(F)(F)COc1ccc(-c2ccc3nnn(CC(F)(F)F)c3c2)cn1 [Compound 12]	B (inhibition of between about 30% to about 70%)
FC(F)(F)Cn1nnc2ccc(-c3ccc(OC4CC(F)(F)C4)cc3)cc21 [Compound 14]	B (inhibition of between about 30% to about 70%)
Cc1nnc(CCn2nnc3ccc(-c4ccc(OC(F)(F)F)cc4)cc32)o1 [Compound 15]	B (inhibition of between about 30% to about 70%)
COc1cc(OC(F)(F)F)ccc1-c1ccc2nnn(CC(F)(F)F)c2n1 [Compound 17]	C (inhibition of greater than 70%)
COCc1cc(OC(F)(F)F)ccc1-c1ccc2nnn(CC(F)(F)F)c2n1 [Compound 18]	C (inhibition of greater than 70%)
FC(F)(F)Cn1nnc2cnc(-c3ccc(OC(F)(F)F)cc3)cc21 [Compound 20]	A (inhibition of less than 30%)

Same assay, conditions: HEK293; 1 μM compound; HEK-293 cells expressing recombinant human NaV1.6; late current evoked by 300 nM ATX-II; steady-state inhibition

SMILES	inhibition at 1 µM [%]
FC(F)(F)Cn1nnc2ccc(-c3ccc(OC(F)(F)F)cc3)nc21 [Compound 1]	30 to 70
FC(F)(F)Cn1nnc2ccc(-c3ccc(OC(F)(F)F)cc3)cc21 [Compound 2]	> 70
COCc1cc(OC(F)(F)F)ccc1-c1ccc2nnn(CC(F)(F)F)c2c1 [Compound 4]	30 to 70
N#CC1(c2ccc(-c3ccc4nnn(CC(F)(F)F)c4c3)cc2)CC1 [Compound 5]	< 30
CCn1nnc2ccc(-c3ccc(OC(F)(F)F)cc3)cc21 [Compound 6]	30 to 70
FC(F)(F)Oc1ccc(-c2ccc3nn[nH]c3c2)cc1 [Compound 7]	< 30
Cc1nnc(CCn2nnc3ccc(-c4ccc(OC(F)(F)F)cc4)nc32)o1 [Compound 9]	30 to 70
FC(F)Cn1nnc2ccc(-c3ccc(OC(F)(F)F)cc3)cc21 [Compound 13]	< 30
COCCn1nnc2ccc(-c3ccc(OC(F)(F)F)cc3)cc21 [Compound 16]	30 to 70
FC(F)(F)Cn1nnc2cnc(-c3ccc(OC(F)(F)F)cc3)nc21 [Compound 19]	< 30
FC(F)(F)Cn1nnc2ncc(-c3ccc(OC(F)(F)F)cc3)cc21 [Compound 21]	< 30
